Measured values published in ChEMBL document CHEMBL5291721, “A preclinical secondary pharmacology resource illuminates target-adverse drug reaction associations of marketed drugs” (Nat Commun, 2023).

Key:
Adenosine receptor A3 = target: T1, Adenosine receptor A3 (Homo sapiens, UniProt P0DMS8)
T1 sequence (P0DMS8 whole entry): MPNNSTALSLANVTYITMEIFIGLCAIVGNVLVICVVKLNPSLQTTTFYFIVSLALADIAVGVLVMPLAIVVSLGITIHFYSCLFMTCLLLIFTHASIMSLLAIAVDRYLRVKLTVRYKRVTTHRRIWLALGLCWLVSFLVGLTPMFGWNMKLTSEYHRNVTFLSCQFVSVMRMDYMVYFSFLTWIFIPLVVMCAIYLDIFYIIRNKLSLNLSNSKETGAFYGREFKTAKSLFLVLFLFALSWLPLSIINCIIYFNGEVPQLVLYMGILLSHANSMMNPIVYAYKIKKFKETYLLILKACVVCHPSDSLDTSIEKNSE

[1] = target: T2, Alpha-1A adrenergic receptor (Homo sapiens, UniProt P35348); format: functional, cell-based
T2 sequence (P35348 whole entry): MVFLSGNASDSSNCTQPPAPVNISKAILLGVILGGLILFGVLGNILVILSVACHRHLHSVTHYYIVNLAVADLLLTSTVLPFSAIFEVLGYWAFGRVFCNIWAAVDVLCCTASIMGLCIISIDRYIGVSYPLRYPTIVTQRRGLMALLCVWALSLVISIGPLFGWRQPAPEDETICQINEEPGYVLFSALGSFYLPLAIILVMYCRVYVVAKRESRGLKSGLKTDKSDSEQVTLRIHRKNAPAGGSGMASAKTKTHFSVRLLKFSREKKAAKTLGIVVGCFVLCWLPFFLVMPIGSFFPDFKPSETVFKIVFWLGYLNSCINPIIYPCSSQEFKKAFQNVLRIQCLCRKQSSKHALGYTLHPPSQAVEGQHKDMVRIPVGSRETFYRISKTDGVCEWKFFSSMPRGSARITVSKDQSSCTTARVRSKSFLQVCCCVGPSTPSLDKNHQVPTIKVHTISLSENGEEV

[2] = target: cGMP-inhibited 3',5'-cyclic phosphodiesterase 3A (Homo sapiens, UniProt Q14432); format: functional
cGMP-inhibited 3',5'-cyclic phosphodiesterase 3A, sequence (Q14432 whole entry): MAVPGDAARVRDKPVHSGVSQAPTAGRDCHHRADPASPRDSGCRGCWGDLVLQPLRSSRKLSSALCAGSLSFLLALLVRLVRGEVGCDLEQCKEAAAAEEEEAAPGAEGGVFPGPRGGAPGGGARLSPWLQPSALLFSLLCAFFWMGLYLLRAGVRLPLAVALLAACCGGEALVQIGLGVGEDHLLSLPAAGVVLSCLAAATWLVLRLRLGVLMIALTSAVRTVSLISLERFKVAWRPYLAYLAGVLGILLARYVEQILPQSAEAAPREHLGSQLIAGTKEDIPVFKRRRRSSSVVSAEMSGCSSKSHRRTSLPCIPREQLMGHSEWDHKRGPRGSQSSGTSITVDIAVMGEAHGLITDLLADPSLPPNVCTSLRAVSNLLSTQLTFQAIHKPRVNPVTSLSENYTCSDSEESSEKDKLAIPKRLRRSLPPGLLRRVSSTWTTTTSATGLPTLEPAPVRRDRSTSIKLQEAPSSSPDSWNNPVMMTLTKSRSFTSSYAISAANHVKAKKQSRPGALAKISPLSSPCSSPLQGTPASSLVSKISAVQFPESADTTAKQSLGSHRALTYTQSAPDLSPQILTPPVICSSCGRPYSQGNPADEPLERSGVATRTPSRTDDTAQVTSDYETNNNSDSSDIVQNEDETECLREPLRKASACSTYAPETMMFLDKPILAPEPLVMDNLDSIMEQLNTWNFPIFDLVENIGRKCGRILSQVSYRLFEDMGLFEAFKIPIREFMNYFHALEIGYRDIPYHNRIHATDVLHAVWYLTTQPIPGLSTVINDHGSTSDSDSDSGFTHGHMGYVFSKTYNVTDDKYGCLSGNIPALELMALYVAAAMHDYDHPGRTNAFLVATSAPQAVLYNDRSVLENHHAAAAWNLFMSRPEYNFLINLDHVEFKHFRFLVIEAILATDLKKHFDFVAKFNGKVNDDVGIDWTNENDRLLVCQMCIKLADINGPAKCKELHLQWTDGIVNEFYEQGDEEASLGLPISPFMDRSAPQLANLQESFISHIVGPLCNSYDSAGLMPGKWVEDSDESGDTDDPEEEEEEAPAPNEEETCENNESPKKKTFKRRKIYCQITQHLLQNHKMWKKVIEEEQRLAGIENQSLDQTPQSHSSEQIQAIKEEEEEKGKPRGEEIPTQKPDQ

Progesterone receptor = target: T3, Progesterone receptor (Homo sapiens, UniProt P06401)
T3 sequence (P06401 whole entry): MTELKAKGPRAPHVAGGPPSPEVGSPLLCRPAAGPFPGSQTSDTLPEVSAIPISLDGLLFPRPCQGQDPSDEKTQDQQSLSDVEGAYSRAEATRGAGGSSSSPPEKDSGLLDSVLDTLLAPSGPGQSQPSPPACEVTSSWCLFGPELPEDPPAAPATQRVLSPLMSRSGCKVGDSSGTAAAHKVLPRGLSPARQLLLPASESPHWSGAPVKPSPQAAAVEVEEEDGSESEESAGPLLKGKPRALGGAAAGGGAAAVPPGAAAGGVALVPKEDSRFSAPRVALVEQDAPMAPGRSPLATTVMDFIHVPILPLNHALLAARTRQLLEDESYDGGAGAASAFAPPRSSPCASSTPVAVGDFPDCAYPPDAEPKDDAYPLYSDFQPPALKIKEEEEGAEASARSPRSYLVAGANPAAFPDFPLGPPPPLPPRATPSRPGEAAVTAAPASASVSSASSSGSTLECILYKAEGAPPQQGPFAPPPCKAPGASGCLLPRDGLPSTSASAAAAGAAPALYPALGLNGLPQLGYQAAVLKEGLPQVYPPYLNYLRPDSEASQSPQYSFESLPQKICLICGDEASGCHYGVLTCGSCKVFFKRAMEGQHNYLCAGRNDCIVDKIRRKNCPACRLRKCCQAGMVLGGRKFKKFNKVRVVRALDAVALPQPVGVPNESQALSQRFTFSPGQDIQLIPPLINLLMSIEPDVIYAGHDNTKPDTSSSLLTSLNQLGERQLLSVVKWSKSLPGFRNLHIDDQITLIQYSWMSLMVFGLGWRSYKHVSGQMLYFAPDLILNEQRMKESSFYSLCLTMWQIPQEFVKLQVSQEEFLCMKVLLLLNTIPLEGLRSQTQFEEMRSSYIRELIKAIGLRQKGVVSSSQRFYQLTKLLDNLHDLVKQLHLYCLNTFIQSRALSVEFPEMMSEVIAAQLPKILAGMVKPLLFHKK

[3] = target: Glutamate receptor ionotropic, NMDA 1 (Rattus norvegicus, UniProt P35439)
[4] = target: 5-hydroxytryptamine receptor 2A (Homo sapiens, UniProt P28223); format: functional, cell-based
5-hydroxytryptamine receptor 2A, sequence (P28223 whole entry): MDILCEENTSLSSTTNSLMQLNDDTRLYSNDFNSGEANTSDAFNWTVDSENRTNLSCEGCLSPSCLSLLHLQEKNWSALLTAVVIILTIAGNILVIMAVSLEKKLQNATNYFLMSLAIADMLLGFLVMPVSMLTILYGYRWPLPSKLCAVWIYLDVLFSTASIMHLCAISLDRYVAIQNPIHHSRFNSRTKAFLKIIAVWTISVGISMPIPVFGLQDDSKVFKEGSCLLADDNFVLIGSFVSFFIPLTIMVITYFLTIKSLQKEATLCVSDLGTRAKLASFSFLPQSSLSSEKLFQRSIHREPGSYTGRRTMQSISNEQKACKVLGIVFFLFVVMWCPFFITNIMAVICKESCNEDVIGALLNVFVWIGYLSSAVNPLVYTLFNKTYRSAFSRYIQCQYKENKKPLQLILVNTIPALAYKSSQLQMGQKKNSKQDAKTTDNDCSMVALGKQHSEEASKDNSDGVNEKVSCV

[5] = target: Sodium-dependent serotonin transporter (Homo sapiens, UniProt P31645)
Sodium-dependent serotonin transporter, sequence (P31645 whole entry): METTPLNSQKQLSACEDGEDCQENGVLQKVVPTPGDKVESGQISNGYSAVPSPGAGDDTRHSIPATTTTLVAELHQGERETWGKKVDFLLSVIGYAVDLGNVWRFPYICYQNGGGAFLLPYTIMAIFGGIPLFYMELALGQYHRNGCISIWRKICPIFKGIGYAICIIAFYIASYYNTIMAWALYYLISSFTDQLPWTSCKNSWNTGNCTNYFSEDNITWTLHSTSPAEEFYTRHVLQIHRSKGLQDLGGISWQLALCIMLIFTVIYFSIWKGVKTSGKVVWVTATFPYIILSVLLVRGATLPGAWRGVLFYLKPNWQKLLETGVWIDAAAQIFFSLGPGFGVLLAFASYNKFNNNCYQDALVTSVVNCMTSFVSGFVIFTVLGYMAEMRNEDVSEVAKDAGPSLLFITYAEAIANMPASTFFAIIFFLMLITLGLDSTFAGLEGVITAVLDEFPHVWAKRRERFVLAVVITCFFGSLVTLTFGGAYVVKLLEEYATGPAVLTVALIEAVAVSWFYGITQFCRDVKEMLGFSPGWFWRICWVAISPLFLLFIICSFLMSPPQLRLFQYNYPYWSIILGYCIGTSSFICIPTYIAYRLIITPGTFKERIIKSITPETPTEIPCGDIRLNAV

[6] = target: T4, 5-hydroxytryptamine receptor 1A (Homo sapiens, UniProt P08908); format: functional, cell-based
T4 sequence (P08908 whole entry): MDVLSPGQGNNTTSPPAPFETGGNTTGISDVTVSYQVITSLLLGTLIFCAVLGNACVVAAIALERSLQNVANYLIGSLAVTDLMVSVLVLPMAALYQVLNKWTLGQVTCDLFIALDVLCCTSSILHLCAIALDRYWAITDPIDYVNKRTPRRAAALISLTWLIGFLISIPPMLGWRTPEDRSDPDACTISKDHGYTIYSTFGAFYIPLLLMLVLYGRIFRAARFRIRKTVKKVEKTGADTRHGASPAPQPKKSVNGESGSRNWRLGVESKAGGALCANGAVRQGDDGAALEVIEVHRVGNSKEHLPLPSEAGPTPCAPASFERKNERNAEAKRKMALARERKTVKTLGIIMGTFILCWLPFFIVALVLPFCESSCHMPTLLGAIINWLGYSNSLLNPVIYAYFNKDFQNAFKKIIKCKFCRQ
Also: assay procedure not described here.

SMILES	AC50 (Adenosine receptor A3) [µM]	AC50 [1] [µM]	AC50 [2] [µM]	AC50 (Progesterone receptor) [µM]	AC50 [3] [µM]	AC50 [4] [µM]	AC50 [5] [µM]	AC50 [6] [µM]
CN(C)S(=O)(=O)c1ccc2c(c1)N(CCCN1CCC(CCO)CC1)c1ccccc1S2 [PIPOTIAZINE]	> 30	> 30	> 30	> 30	–	–	–	–
Nc1nc(NC2CC2)c2ncn([C@H]3C=C[C@@H](CO)C3)c2n1 [ABACAVIR]	–	–	–	–	> 30	> 30	> 30	–
C[C@H]1CNCCc2ccc(Cl)cc21 [LORCASERIN]	–	–	–	–	–	–	–	4.4
C[C@]12CC[C@@H]3c4ccc(O)cc4CC[C@H]3[C@@H]1C[C@@H](O)[C@@H]2O [ESTRIOL]	> 30	> 30	> 30	3.3	–	–	–	–
CCCCCCOc1nsnc1C1=CCCN(C)C1 [XANOMELINE]	> 30	13.2	> 30	> 30	–	–	–	–
CCc1oc2ccccc2c1C(=O)c1cc(I)c(O)c(I)c1 [BENZIODARONE]	–	–	> 30	4.27	–	–	–	–
O=C(CCNNC(=O)c1ccncc1)NCc1ccccc1 [NIALAMIDE]	> 30	> 30	> 30	> 30	–	–	–	–
C[N+]1(C)CCC(OC(=O)C(O)(c2ccccc2)C2CCCC2)C1 (stereo not drawn) [GLYCOPYRRONIUM BROMIDE]	–	–	> 30	> 30	–	–	–	–
CC(=O)N[C@@H]1[C@@H](O)[C@H](O)[C@@H](CO)O[C@H]1O [N-ACETYLGLUCOSAMINE]	> 30	> 30	> 30	> 30	–	–	–	–
COCc1c(C(C)C)nc(C(C)C)c(/C=C/[C@@H](O)C[C@@H](O)CC(=O)O)c1-c1ccc(F)cc1 [CERIVASTATIN]	> 30	> 30	> 30	> 30	–	–	–	–
COC(c1ccccc1)(c1ccccc1)[C@H](Oc1nc(C)cc(C)n1)C(=O)O [AMBRISENTAN]	> 30	> 30	> 30	> 30	–	–	–	–
C[N+](C)(C)CCO [CHOLINE]	> 30	> 30	> 30	> 30	–	–	–	–
CC(C)(S)[C@@H](N)C(=O)O [PENICILLAMINE]	> 30	> 30	> 30	> 30	–	–	–	–
CN(C)CCC=C1c2ccccc2C(C)(C)c2ccccc21	–	–	–	–	–	–	0.24	> 30
CCC(=O)NCC[C@@H]1CCc2ccc3c(c21)CCO3 [RAMELTEON]	> 30	> 30	> 30	> 30	–	–	–	–
N[C@@H]1[C@H]2CN(c3nc4c(cc3F)c(=O)c(C(=O)O)cn4-c3ccc(F)cc3F)C[C@@H]12 [TROVAFLOXACIN]	–	–	–	–	–	–	–	> 30
N[C@H](C(=O)O)[C@H](O)c1ccc(O)c(O)c1 [DROXIDOPA]	> 30	10.4	> 30	> 30	–	–	–	–
CCOC(=O)[C@H](CCc1ccccc1)N[C@@H](C)C(=O)N1[C@H](C(=O)O)C[C@H]2CCCC[C@@H]21 [TRANDOLAPRIL]	> 30	> 30	> 30	> 30	–	–	–	–
C=C[C@H]1C[N@@]2CC[C@H]1C[C@H]2[C@H](O)c1ccnc2ccc(OC)cc12 [QUININE]	> 30	–	> 30	> 30	–	–	–	–

SMILES	AC50 (Adenosine receptor A3) [µM]	AC50 [1] [µM]	AC50 [2] [µM]	AC50 (Progesterone receptor) [µM]	AC50 [3] [µM]	AC50 [4] [µM]	AC50 [5] [µM]	AC50 [6] [µM]
O=C(Cc1ccc(-c2ccccc2)cc1)Nc1ccccn1 [DIFENPIRAMIDE]	–	> 30	> 30	> 30	> 30	> 30	–	–
CC(C)Nc1ncccn1 [ISAXONINE]	> 30	> 30	> 30	> 30	–	–	–	–
OCCN1C[C@H](O)[C@@H](O)[C@H](O)[C@H]1CO [MIGLITOL]	> 30	> 30	> 30	> 30	–	–	–	–
Oc1c(Cl)cc(Cl)c2cccnc12 [CHLOROXINE]	> 30	> 30	> 30	> 30	–	–	–	–
COc1cc(NC(C)CCCN)c2ncccc2c1 (stereo not drawn) [PRIMAQUINE]	14.7	–	22.5	15.4	–	–	–	–
Cc1cc(C#N)cc(C)c1Oc1nc(Nc2ccc(C#N)cc2)nc(N)c1Br [ETRAVIRINE]	–	> 10	> 30	0.08	–	–	–	–
CCCCN1C[C@H](O)[C@@H](O)[C@H](O)[C@H]1CO	–	–	–	–	> 30	> 30	> 30	–
CN(C)CCn1nnnc1SCC1=C(C(=O)O)N2C(=O)[C@@H](NC(=O)Cc3csc(N)n3)[C@H]2SC1 [CEFOTIAM]	> 30	> 30	> 30	> 30	–	–	–	–
Cc1nc([N+](=O)[O-])cn1-c1ccc([N+](=O)[O-])cc1 [NITREFAZOLE]	–	–	–	–	> 30	> 30	> 30	–
CN(C)[C@@H](c1cccc(O)c1)[C@H]1CCCC[C@H]1O [CIRAMADOL]	> 30	> 30	> 30	> 30	–	–	–	–
CN(C)CCN1C(=O)c2ccccc2N(C)c2ccccc21 [DIBENZEPIN]	> 30	22.5	> 30	> 30	–	–	–	–
CCC1=C(C)CN(C(=O)NCCc2ccc(S(=O)(=O)NC(=O)N[C@H]3CC[C@H](C)CC3)cc2)C1=O [GLIMEPIRIDE]	> 30	> 30	> 30	> 30	–	–	–	–
CC(=O)Nc1ccc(O)cc1 [ACETAMINOPHEN]	> 30	> 30	> 30	> 30	–	–	–	> 30
C1CCC(C(CC2CCCCN2)C2CCCCC2)CC1 (stereo not drawn) [PERHEXILINE]	–	–	–	–	–	–	–	> 3
N[C@@H](C(=O)N[C@@H]1C(=O)N2C(C(=O)O)=C(Cl)CC[C@H]12)c1ccccc1 [LORACARBEF ANHYDROUS]	> 30	> 30	> 30	> 30	–	–	–	–
CN(C)CC(c1ccc(O)cc1)C1(O)CCCCC1 (stereo not drawn) [DESVENLAFAXINE]	> 30	> 30	> 30	> 30	–	–	–	–
CC(C)(C)NC[C@H](O)COc1ccccc1C1CCCC1 [PENBUTOLOL]	> 30	> 30	> 30	> 30	–	–	–	–
CC[N+]1(C)[C@@H]2CC(OC(=O)[C@H](CO)c3ccccc3)C[C@H]1[C@@H]1O[C@@H]12 (stereo partly drawn) [OXITROPIUM]	> 30	> 30	> 30	> 30	–	–	–	–
O=C(O)c1cc(O)ccc1O [GENTISIC ACID]	> 30	> 30	> 30	> 30	–	–	–	–
